For experiment [1], the target named is Cyclin-dependent kinase 3 (Homo sapiens, UniProt Q00526). Kind of experiment: (§1) In Vitro Kinase Inhibition Assay: In vitro kinase assay analysis may be performed using standard techniques described in the art. These techniques are also used by commercial services providers in order to offer in vitro kinase activity assay services, e.g. the assays offered by Millipore Inc. (worldwide website www(dot)millipore.com), ProQinase GmbH (worldwide website www(dot)proqinase.de) and others. All kinase assays were performed in 96-well FlashPlates from Perkin Elmer/NEN (Boston, Mass., USA) in a 50ul reaction volume. The reaction mixture was pipetted in four steps in the following order: 20ul of assay buffer (standard buffer),5ul of ATP solution (in H2O, 5 ul of test compound (in 10% DMSO), 10ul of substrate/10ul of enzyme solution (premixed)The assay for all enzymes contained 60 mM HEPES-NaOH (pH 7.5), 3 mM MgCl2, 3 mM MnCl2, 3uM Na-Orthovanadate, 1.2 mM DTT, 50 ug/ml PEG2000, 1 uM [33P]-ATP (approx. 5x1005 cpm per well).
Sequence of Cyclin-dependent kinase 3 (Q00526 whole entry): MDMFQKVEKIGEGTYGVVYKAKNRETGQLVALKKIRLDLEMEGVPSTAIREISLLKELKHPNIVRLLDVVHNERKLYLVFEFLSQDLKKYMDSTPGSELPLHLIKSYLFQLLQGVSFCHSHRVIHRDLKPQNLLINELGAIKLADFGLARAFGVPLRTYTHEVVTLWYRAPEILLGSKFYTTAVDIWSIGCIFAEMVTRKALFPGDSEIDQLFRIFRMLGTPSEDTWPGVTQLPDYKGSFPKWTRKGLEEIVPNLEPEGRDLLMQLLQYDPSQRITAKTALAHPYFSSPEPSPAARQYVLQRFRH

The target in experiment [2] is Interleukin-1 receptor-associated kinase 1 (Homo sapiens, UniProt P51617). The description is as §1.
Sequence of Interleukin-1 receptor-associated kinase 1 (P51617 whole entry): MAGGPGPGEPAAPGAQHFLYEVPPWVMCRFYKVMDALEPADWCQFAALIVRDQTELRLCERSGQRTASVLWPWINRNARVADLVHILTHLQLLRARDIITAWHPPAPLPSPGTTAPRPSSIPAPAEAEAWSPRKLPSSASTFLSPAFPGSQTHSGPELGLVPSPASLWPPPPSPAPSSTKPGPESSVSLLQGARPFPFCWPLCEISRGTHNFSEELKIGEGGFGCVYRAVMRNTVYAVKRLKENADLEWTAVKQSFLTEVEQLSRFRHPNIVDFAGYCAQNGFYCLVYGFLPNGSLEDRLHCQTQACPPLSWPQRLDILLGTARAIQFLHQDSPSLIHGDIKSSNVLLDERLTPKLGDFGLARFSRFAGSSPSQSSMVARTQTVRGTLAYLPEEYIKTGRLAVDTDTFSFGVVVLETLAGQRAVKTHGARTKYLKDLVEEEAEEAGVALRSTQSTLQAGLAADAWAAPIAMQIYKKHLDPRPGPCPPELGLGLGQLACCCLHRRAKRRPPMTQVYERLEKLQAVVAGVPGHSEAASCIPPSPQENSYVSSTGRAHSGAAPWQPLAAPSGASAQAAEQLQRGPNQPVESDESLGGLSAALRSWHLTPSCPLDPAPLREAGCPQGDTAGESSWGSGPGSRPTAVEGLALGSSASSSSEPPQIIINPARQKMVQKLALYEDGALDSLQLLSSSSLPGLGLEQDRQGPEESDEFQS
Experiment [3] addresses Cyclin-dependent kinase 1 (Homo sapiens, UniProt P06493). The description is as §1.
For experiment [4], the target named is Cyclin-dependent kinase 6 (Homo sapiens, UniProt Q00534). The description is as §1.
Sequence of Cyclin-dependent kinase 6 (Q00534 whole entry): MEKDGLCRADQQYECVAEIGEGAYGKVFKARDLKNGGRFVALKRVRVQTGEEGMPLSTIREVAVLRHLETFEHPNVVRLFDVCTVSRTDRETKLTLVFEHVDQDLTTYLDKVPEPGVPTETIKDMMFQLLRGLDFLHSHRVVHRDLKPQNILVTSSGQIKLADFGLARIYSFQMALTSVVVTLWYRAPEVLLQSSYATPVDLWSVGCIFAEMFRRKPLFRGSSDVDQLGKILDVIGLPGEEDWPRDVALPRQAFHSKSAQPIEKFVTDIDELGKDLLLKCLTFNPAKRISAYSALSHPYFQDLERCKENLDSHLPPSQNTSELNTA
Experiment [5] deals with Glycogen synthase kinase-3 alpha (Homo sapiens, UniProt P49840). Described as §1.
Sequence of Glycogen synthase kinase-3 alpha (P49840 whole entry): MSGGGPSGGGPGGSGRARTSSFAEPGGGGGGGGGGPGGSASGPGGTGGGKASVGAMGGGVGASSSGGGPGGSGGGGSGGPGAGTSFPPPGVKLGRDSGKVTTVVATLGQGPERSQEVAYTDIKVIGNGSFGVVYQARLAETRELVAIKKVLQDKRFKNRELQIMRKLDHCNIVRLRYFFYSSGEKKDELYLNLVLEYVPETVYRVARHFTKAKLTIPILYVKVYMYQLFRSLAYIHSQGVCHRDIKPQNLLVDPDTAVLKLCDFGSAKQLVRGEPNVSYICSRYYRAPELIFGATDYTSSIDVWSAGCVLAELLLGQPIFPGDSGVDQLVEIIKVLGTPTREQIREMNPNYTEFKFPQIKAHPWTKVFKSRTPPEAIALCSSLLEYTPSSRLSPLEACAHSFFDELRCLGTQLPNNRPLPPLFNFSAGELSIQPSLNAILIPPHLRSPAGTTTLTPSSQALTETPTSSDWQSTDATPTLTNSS
Experiment [6] deals with Cyclin-dependent kinase 7 (Homo sapiens, UniProt P50613). Described as §1.
Sequence of Cyclin-dependent kinase 7 (P50613 whole entry): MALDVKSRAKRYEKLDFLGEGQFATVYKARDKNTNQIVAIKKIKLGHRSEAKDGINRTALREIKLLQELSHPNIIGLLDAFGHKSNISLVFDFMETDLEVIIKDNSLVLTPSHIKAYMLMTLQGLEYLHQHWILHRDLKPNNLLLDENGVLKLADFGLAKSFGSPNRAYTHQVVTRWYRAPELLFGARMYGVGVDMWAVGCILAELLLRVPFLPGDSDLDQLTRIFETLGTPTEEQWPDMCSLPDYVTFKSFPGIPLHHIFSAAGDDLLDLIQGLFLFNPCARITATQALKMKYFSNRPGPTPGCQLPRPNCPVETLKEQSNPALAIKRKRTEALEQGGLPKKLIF
The target in experiment [7] is Cyclin-dependent kinase 9 (Homo sapiens, UniProt P50750). Described as §1.
Sequence of Cyclin-dependent kinase 9 (P50750 whole entry): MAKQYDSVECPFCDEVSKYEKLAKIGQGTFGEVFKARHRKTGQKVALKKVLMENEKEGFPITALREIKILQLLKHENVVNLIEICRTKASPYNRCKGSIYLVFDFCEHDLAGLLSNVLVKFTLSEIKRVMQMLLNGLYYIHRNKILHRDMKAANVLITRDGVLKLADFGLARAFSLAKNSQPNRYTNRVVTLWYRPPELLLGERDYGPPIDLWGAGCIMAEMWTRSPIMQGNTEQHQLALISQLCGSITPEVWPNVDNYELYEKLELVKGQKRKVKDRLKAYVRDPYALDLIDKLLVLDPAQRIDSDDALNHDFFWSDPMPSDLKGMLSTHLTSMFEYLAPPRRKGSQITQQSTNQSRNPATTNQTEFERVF
Experiment [8] deals with Cyclin-dependent kinase 5 (Homo sapiens, UniProt Q00535). The experiment is described as §1.
Sequence of Cyclin-dependent kinase 5 (Q00535 whole entry): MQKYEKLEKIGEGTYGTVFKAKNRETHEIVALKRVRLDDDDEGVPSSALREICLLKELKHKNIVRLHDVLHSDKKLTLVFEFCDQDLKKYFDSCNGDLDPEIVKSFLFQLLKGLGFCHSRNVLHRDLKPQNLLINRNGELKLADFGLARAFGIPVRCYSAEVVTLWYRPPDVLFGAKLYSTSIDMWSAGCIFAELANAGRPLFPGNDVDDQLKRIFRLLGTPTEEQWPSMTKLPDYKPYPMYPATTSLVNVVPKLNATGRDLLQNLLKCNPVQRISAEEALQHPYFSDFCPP
Experiment [9] has as its target Cyclin-dependent kinase 2 (Homo sapiens, UniProt P24941). Described as §1.
Experiment [10] deals with Glycogen synthase kinase-3 beta (Homo sapiens, UniProt P49841). The experiment is described as §1.
Sequence of Glycogen synthase kinase-3 beta (P49841 whole entry): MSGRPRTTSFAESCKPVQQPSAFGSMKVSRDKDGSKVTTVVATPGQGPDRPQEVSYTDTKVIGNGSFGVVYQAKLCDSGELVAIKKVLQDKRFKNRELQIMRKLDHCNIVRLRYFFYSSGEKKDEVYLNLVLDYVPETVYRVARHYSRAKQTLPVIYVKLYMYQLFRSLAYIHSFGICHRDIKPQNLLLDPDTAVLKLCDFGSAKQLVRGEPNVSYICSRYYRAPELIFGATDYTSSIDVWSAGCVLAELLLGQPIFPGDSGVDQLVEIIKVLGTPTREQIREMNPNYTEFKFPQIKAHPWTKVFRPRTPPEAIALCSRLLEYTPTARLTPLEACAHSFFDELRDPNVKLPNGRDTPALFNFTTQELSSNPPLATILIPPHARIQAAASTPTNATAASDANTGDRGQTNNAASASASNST

Sequence of Cyclin-dependent kinase 1 (P06493 whole entry): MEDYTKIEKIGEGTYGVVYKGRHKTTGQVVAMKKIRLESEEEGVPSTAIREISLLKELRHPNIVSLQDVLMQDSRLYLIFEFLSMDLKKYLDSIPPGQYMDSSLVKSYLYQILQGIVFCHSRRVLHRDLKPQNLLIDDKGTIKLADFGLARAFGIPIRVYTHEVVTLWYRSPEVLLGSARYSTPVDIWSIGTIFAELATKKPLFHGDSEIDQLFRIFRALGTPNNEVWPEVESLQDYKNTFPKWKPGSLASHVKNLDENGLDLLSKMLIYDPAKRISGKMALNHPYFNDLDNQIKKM

Regarding `COc1cc(F)ccc1-c1ccnc(NC(=O)[C@@H]2CC[C@H](NC(C)=O)C2)c1`, the IC50 in experiment [1] is 1450 nM; in experiment [2], > 5000 nM; in experiment [3] it was 1880 nM; in experiment [4] it was > 5000 nM; in [5], 99 nM; in experiment [6], > 5000 nM. Moreover, the concentration for half-maximal inhibition (IC50) came out at 10 nM in experiment [7], 1340 nM in experiment [8], 913 nM in experiment [9] and 857 nM in experiment [10].

Values taken from ChEMBL document CHEMBL3638701, “Inhibitors of protein kinases” (2015).
